Experiments:
[1] = system: MCF7AC1 cells; experiment: IncuCyte Annexin V apoptosis assay, MCF7AC1; type: cell-based, human; conditions: CSS medium, 48 h
Method: MCF7AC1 and T47D-LTED cells were plated at a density of 2000 cells per well in CSS medium for 24 h. Cells were then co-treated for 48 h with vehicle or drug, IncuCyte Annexin V green reagent (#4642, 1:300), an early-stage apoptosis marker, and IncuCyte NucLight rapid red reagent (#4717, 1:500), a dye that stains all cell nuclei red, in CSS medium. MCF7AC1^caAKT cells were plated at a cell density of 2000 cells per well in CSS medium in the absence or presence of cumate for 48 h and then co-treated with vehicle or drug, Annexin V green and NucLight rapid red reagents in the absence or presence of cumate for an additional 48 h in CSS medium.

[2] = system: AKT^Ser473 phosphorylation in T47D-LTED cells; experiment: Immunoblot of pAKT^Ser473, T47D-LTED; type: cell-based, human; conditions: CSS medium, 24 h; 5 µM
Method: Protein lysates were prepared using the RIPA lysis buffer system (ChemCruz #sc-24948) and quantified using the DC^TM Protein Assay reagents (Bio-Rad #5000112). Equal amounts of protein lysates were separated on 10% Criterion gels (Bio-Rad #3450112), transferred to PVDF membranes (Bio-Rad #1620177), blocked in TBST-5% milk and probed with primary antibodies listed in Supplementary Table 5, at the indicated dilutions. Membranes were incubated with HRP-conjugated anti-rabbit (CST #7074) or anti-mouse (CST #7076) secondary antibodies and visualized using chemiluminescent West Pico (Thermo Scientific #34580) or West Femto (Thermo Scientific #34096) reagents and a Li-Cor Odyssey® XF imager. Protein lysates from the MCF7AC1 xenograft model were obtained from a previous study. Quantitation of the protein bands signal intensity was performed using the NIH ImageJ image analysis software (https://imagej.nih.gov/ij///index.html). For the quantitation of the phospho protein levels, we first normalized total protein levels to β-actin loading control and used these values to normalize the phospho protein levels and compared change in protein expression levels relative to vehicle control normalized to 1.0. For the quantitation of total protein levels, we normalized the total protein levels to β-actin and compared change in expression levels relative to vehicle control normalized to 1.0. […]

[3] = system: BT549 cells; experiment: Crystal violet growth assay, BT549; type: cell-based, human; conditions: day seven
Excerpt: Supplementary Figure 8. […]
ANOVA. b, Effects of ENDX on cell proliferation at the indicated concentrations on day seven of
treatment. […]

[4] = system: MCF7AC1 aromatase inhibitor-sensitive and -resistant models; set-up: method as in PMID 32430040; conditions: cited from earlier work

Question: What does the source list for CC/C(=C(\c1ccc(O)cc1)c1ccc(OCCNC)cc1)c1ccccc1 [ENDX, Z-endoxifen]?
Answer: Concentrations that induced apoptosis ([1]; 0 to 10 µM tested): ≥ 2.5 µM; Effect on apoptosis ([1]; ENDX 5 µM, TAM 0.1 µM, ICI 0.1 µM): induced apoptosis; Effect on AKT^Ser473 phosphorylation [2]: attenuated AKT^Ser473 phosphorylation; Concentrations at which growth was inhibited [3]: > 7.5 µM; In vivo antitumor activity [4]: superior in vivo antitumor activity compared to TAM and letrozole

Source: PMC10730845, “Endoxifen downregulates AKT phosphorylation through protein kinase C beta 1 inhibition in ERα+ breast cancer” (NPJ Breast Cancer, 2023)
